In the assay the test system is TLR2. As to the kind of experiment: Topical treatment of healthy volunteers' skin, TLR2 immunostaining. In kind it is in vivo, human. To be noted: topical 1,25D3 1.0 mM once applied, 4 days, versus vehicle-treated contralateral skin. Here is the method:
Patients and treatments. Human skin wounds were collected following informed consent by inducing 5 mm full-thickness wounds in volunteers (n=5) under aseptic conditions with local anesthesia as described. At 24 hours after incision, 4 mm punch biopsies were taken from the site of injury and immediately fixed in formalin for immunostaining or frozen in liquid N2 for subsequent RNA isolation. Intact skin from healthy volunteers served as control (n=4). To examine the effects of topical 1,25D3, healthy skin of volunteers (n=7) was treated once topically with 1,25D3 (1.0 mM) and left under occlusion for 4 days. Vehicle treated contralateral skin served as a control. After treatment, skin biopsies were obtained from both sites, fixed in formalin 10% and embedded in paraffin for immunostaining. All treatments and sample acquisitions, including skin biopsies, were approved by the committees on investigations involving human subjects.
Immunostaining. […] Nuclei were detected with DAPI. After subsequent washings with PBS slides, were mounted in ProLong Anti-Fade reagent (Molecular Probes, Eugene, Oreg.) and evaluated with an Olympus BX41 microscope (Olympus, Melville, N.Y.). […]
NaOH, pH6.0). […] Sections were washed in PBS and detected with biotinylated secondary antibodies (Vector Laboratories, Burlingame, Calif.) and diaminobenzidine substrate (Sigma) per manufacturers' instructions.

These results are taken from patent US20100273748A1, “ANTIMICROBIAL THERAPY” (priority 2006, published 2010).

Take `C=C1/C(=C\C=C2/CCC[C@]3(C)[C@@H]([C@H](C)CCCC(C)(C)O)CC[C@@H]23)C[C@@H](O)C[C@@H]1O` [1,25D3, 1,25(OH)2 vitamin D3]: the “TLR2 staining intensity in skin sections” value is listed as “Staining intensity increased”.
